Reference: ChEMBL document CHEMBL4346735, “Discovery and pharmacological evaluation of indole derivatives as potent and selective RORγt inverse agonist for multiple autoimmune conditions” (Bioorg Med Chem Lett, 2019)
The source made the active and inactive calls. The calls are words filed in the database; no cut-off is given here.

Key:
Mus musculus [1] = assay: Immunosuppressive activity in MOG (35 to 55 residues)/pertussis toxin-induced experimental allergic encephalomyelitis C57BL/6J mouse model assessed as IFN-gamma production of CNS infiltrating CD4+ Th1 cells at 10 mg/kg, po qd by intracellular staining method; assay type: functional, organism-based
[2] = Half life in mouse at 3 mg/kg, iv; assay type: ADME, organism-based; conditions: in vivo
[3] = Metabolic stability in rat liver microsomes assessed as parent compound remaining at 1 uM preincubated for 5 mins followed by NADPH addition after 30 mins by LC-MS/MS analysis; assay type: ADME, Microsome; conditions: read-out: Stability
[4] = AUC (0 to 24 hrs) in mouse at 10 mg/kg, po; assay type: ADME, organism-based; design: dose 10 mg/kg, time < 24 hr, route oral; conditions: in vivo, 24 h
Cytochrome P450 2C19 = Cytochrome P450 2C19 (Homo sapiens, UniProt P33261); assay: Inhibition of CYP2C19 in human liver microsomes using (S)-mephenytoin as substrate preincubated for 5 mins followed by NADPH addition measured after 40 mins by LC-MS/MS analysis
Cytochrome P450 1A2 = target: T1, Cytochrome P450 1A2 (Homo sapiens, UniProt P05177); assay: Inhibition of CYP1A2 in human liver microsomes using phenacetin as substrate preincubated for 5 mins followed by NADPH addition measured after 10 mins by LC-MS/MS analysis
T1 sequence (P05177 whole entry): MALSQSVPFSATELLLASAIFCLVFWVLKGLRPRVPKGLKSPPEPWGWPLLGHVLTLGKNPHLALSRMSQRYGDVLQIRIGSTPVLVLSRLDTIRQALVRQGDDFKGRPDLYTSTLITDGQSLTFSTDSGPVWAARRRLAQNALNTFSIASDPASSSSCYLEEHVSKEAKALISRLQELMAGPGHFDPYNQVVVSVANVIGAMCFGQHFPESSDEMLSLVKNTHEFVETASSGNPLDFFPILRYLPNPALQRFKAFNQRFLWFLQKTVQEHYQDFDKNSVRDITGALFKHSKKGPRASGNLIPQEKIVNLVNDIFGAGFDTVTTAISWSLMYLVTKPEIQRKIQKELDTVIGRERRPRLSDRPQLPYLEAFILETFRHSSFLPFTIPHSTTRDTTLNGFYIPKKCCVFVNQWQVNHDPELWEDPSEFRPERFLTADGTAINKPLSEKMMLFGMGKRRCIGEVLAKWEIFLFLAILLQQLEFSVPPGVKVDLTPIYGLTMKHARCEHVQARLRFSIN

[5] = Volume of distribution at steady state in mouse at 3 mg/kg, iv; assay type: ADME, organism-based; conditions: in vivo, read-out: Vdss
Mus musculus [6] = assay: Immunosuppressive activity in MOG (35 to 55 residues)/pertussis toxin-induced experimental allergic encephalomyelitis C57BL/6J mouse model assessed as reduction in disease severity score at 10 mg/kg, po qd measured at day 21 relative to dexamethasone; assay type: functional; conditions: 504 h
[7] = Tmax in mouse at 10 mg/kg, po; assay type: ADME, organism-based; conditions: in vivo
Cytochrome P450 2C9 = Cytochrome P450 2C9 (Homo sapiens, UniProt P11712); assay: Inhibition of CYP2C9 in human liver microsomes using diclofenac as substrate preincubated for 5 mins followed by NADPH addition measured after 10 mins by LC-MS/MS analysis
Cytochrome P450 3A4 = Cytochrome P450 3A4 (Homo sapiens, UniProt P08684); assay: Inhibition of CYP3A4 in human liver microsomes using testosterone as substrate preincubated for 5 mins followed by NADPH addition measured after 10 mins by LC-MS/MS analysis
Mus musculus [8] = assay: Immunosuppressive activity in MOG (35 to 55 residues)/pertussis toxin-induced experimental allergic encephalomyelitis C57BL/6J mouse model assessed as decrease in ratio of Th17:Th1 at 10 mg/kg, po qd by intracellular staining method; assay type: functional, organism-based
[9] = Metabolic stability in human liver microsomes assessed as parent compound remaining at 1 uM preincubated for 5 mins followed by NADPH addition after 30 mins by LC-MS/MS analysis; assay type: ADME, Microsome; conditions: read-out: Stability
[10] = Cmax in mouse at 10 mg/kg, po; assay type: ADME, organism-based; design: dose 10 mg/kg, route oral; conditions: in vivo
[11] = Oral bioavailability in mouse at 10 mg/kg; assay type: ADME, organism-based; conditions: in vivo
Mus musculus [12] = species on record: Mus musculus; conditions: C57BL/6J, at 10 mg/kg
Description: Immunosuppressive activity in MOG (35 to 55 residues)/pertussis toxin-induced experimental allergic encephalomyelitis C57BL/6J mouse model assessed as reduction in IL-17 production of CNS infiltrating CD4+ Th17 cells at 10 mg/kg, po qd by intracellular staining method

[13] = Metabolic stability in mouse liver microsomes assessed as parent compound remaining at 1 uM preincubated for 5 mins followed by NADPH addition after 30 mins by LC-MS/MS analysis; assay type: ADME, Microsome; conditions: read-out: Stability

Sequence of Cytochrome P450 3A4 (P08684 whole entry, the tested form may be a part): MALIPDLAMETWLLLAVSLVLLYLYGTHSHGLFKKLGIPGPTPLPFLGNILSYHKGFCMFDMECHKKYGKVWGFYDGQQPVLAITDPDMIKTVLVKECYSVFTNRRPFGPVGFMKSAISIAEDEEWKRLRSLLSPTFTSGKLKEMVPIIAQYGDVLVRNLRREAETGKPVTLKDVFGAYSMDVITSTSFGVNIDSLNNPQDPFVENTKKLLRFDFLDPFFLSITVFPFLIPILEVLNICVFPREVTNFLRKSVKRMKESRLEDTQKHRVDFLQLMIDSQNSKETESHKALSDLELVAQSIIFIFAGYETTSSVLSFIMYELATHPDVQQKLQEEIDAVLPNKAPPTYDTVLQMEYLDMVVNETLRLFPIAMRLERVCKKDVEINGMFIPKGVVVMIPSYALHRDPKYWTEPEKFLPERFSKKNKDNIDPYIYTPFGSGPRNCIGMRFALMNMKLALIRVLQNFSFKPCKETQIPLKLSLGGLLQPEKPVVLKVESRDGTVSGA
Sequence of Cytochrome P450 2C9 (P11712 whole entry): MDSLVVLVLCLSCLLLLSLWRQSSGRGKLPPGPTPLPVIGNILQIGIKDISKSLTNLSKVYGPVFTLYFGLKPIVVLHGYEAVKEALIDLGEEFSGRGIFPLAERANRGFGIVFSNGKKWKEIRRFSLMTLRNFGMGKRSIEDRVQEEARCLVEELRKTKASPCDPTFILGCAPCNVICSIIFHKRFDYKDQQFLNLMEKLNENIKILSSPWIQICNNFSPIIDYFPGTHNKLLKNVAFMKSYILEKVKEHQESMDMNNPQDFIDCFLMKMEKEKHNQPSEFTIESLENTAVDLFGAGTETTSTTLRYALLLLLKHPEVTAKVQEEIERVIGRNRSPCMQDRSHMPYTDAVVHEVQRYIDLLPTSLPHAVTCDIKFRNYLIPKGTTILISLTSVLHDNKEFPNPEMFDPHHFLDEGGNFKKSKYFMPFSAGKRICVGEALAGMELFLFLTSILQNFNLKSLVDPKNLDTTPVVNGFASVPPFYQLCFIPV
Sequence of Cytochrome P450 2C19 (P33261 whole entry): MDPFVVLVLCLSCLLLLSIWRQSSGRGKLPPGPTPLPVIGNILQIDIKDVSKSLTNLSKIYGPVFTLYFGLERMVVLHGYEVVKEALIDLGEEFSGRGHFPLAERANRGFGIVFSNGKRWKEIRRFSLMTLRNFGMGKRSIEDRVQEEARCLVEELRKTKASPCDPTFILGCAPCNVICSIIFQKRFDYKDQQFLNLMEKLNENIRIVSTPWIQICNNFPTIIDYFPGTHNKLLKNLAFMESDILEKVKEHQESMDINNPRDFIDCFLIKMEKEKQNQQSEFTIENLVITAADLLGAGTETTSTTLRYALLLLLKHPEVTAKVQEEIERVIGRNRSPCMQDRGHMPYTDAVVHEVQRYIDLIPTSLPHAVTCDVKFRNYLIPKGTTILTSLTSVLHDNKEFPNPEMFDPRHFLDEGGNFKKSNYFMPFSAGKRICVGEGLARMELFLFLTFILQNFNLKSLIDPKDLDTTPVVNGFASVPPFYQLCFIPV

CCS(=O)(=O)c1ccc(CC(=O)Nc2cc(Cl)c(-c3ccccc3OC(F)(F)F)c(Cl)c2)cc1
inhibition (Mus musculus [1]): inactive
half-life [2]: 10.7 h
remaining at 0.5 h, 1 µM [3]: 65%
AUC [4]: 22.3 µM·h
IC50 (Cytochrome P450 2C19): 9.6 µM
IC50 (Cytochrome P450 1A2): > 50 µM
Vd [5]: 3.5 L/kg
inhibition in vivo at 10 mg/kg (Mus musculus [6]): 24%
Tmax [7]: 2 h
IC50 (Cytochrome P450 2C9): 2.1 µM
IC50 (Cytochrome P450 3A4): > 50 µM
inhibition (Mus musculus [8]): Active
remaining at 0.5 h, 1 µM [9]: 100%
Cmax [10]: 3000 nM
F [11]: 79%
inhibition (Mus musculus [12]): Active
remaining at 0.5 h, 1 µM [13]: 70%
